Data on 1 compound can be found in patent US20220117867A1, “ANTIMICROBIAL ACTIVITY OF FATTY ACID ESTERS AND COMBINATIONS THEREOF” (SYMRISE AG, priority 2019, published 2022).

Common to all, as to type: cell-based
Test [1] has as its system Escherichia coli. As to the kind of experiment: Minimum Inhibitory Concentration (MIC) Method A. As to conditions: read-out: MIC. How it is done:
(§1) A) Minimum Inhibitory Concentration (MIC) Method A
(§2) The MIC test is a test on growth inhibition. Estimation of Minimum Inhibitory Concentration (MIC) is executed in 96 well plates. Through the comparison of bacterial growth curves with positive and negative controls via optical density (OD), different concentrations of given test substances are evaluated.
(§3) Bacteria are cultivated under adjusted conditions based on information of the German Collection of Microorganisms and Cell Cultures (DSMZ) and stored in 50% Glycerol prior to use. Afterwards, the following method was applied:
(§4) Adding growth medium (according to microorganism) to each well of the microplate.
(§5) Adding the test-substances in different concentrations, positive controls (water controls only with medium) and negative controls (benchmarks according to organism).
(§6) Adding the microorganism in a concentration of 10^6 CFU/ml (CFU=colony forming units). Incubation of the microplates at appropriate conditions.
(§7) Aerobic microorganism: optical density is continuously measured (microplate reader) during incubation.
(§8) According to resulting growth curves, substance concentrations are labelled either as inhibiting or normal growth and MIC is defined as the lowest concentration where a clear inhibition is visible. Experiments at concentration limits (highest concentration labelled as growth and lowest concentration labelled as inhibiting) are performed at least twice.

In test [2] the test system is Aspergillus brasiliensis. As to the kind of experiment: Minimum Inhibitory Concentration (MIC) Method A. As to conditions: read-out: MIC. How it is done: as §1, §2, §3, §4, §5, §6, §7, §8
In test [3] the test system is Staphylococcus epidermidis. As to the kind of experiment: Minimum Inhibitory Concentration (MIC) Method A. As to conditions: read-out: MIC. How it is done: as §1, §2, §3, §4, §5, §6, §7, §8
In test [4] the test system is Staphylococcus aureus. As to the kind of experiment: Minimum Inhibitory Concentration (MIC) Method A. Particulars: read-out: MIC. As for the experimental part:
as §1, §2, §3, §4, §5, §6, §7, §8

Test [5] concerns Streptococcus mutans. The experiment in a line: Minimum Inhibitory Concentration (MIC) Method B. How it is done: (§9) B) Minimum Inhibitory Concentration (MIC) Method B Test conditions: Evaluation of bactericidal and fungicidal activity in qualitative suspension test (VAH-standard methods, 04-2015). 5 ml of the appropriate dilution of the test product is mixed with 0.1 ml of test suspension and mixed well. After the required action times, the mixture was mixed again. Each 0.1 ml were removed and placed in 5 ml of CSL-bouillon without neutralizing agents.

For test [6], the system named is Peptoniphilus lacrimalis. The experiment in a line: Minimum Inhibitory Concentration (MIC) Method B. How it is done: as §9
Test [7] deals with Trichophyton rubrum. The experiment in a line: Minimum Inhibitory Concentration (MIC) Method B. As for the experimental part:
as §9

Test [8] deals with Fannyhessea vaginae (Atopobium vaginae). The experiment in a line: Minimum Inhibitory Concentration (MIC) Method B. How it is done:
as §9

The subject of test [9] is Streptococcus agalactiae. The experiment in a line: Minimum Inhibitory Concentration (MIC) Method B. As for the experimental part: as §9
The test system of test [10] is Gardnerella vaginalis. The experiment in a line: Minimum Inhibitory Concentration (MIC) Method B. As for the experimental part:
as §9

As usually defined, the MIC is the lowest concentration that inhibits growth of the organism.

Converted amounts (≈) assume the structure as drawn.

Take `CCCCCCCC(=O)OCCCO` [3-hydroxypropyl caprylate]: the MIC in test [1] amounted to 1000 µg/mL (≈ 4.94 mM); in [2] it was 1000 µg/mL (≈ 4.94 mM); in test [3], 500 µg/mL (≈ 2.47 mM); in [4] it was 500 µg/mL (≈ 2.47 mM); in test [5], 5000 µg/mL (≈ 24.7 mM); in test [6], 1000 µg/mL (≈ 4.94 mM). Further, the MIC worked out at 500 µg/mL (≈ 2.47 mM) in test [7], 500 µg/mL (≈ 2.47 mM) in test [8], 10000 µg/mL (≈ 49.4 mM) in test [9] and 500 µg/mL (≈ 2.47 mM) in test [10].
